Where two headings read alike, the source gives them in different places. Values belong to the compound of their own block, whether it stands above or below them.
Experiments:
hP2Y2 = system: hP2Y2; parameters: method as in PMID 8564228; conditions: endogenous agonists; cited from earlier work
NLuc-P2Y2R = molecular target: T1, NLuc-P2Y2R (Homo sapiens, UniProt P41231); assay: NanoBRET saturation binding in NLuc-P2Y2R 1321N1 astrocytoma cells; conditions: for Kd / NanoBRET pKd: saturation binding curves, 1321N1 cells expressing NLuc-P2Y2R, mean ± SEM; for specific NanoBRET signal: fixed 10 μM fluorescent conjugate in presence or absence of 10 μM 1, among 78–91 (Figure S1); for NanoBRET pKd: Table 4
T1 construct: expressed in transfected cells
Experimental: To determine whether any of these conjugates had affinities for P2Y2R and consequently if they could be used in NanoBRET binding assays, a 1321N1 astrocytoma cell line expressing recombinant P2Y2R tagged on its N-terminus with NLuc (NLuc-P2Y2R) was generated. […] These NLuc-P2Y2 cells were treated with increasing concentrations of 66–69 and then treated with the NLuc substrate, furimazine, before the resulting BRET signal was monitored. […] However, this did illustrate the power of using NanoBRET to monitor ligand binding to low-affinity receptors.
Nucleophilic displacement of the 2-chloro substituent of 43 by either tert-butyl 3-aminopropanoate or tert-butyl 6-aminohexanoate gave the corresponding tert-butyl esters (70 and 71). […] The carboxylic acids were generated from the tert-butyl esters via TFA-mediated hydrolysis and subsequently coupled with tert-butyl (2-aminoethyl)carbamate or tert-butyl (2-(2-aminoethoxy)ethyl)carbamate to generate the corresponding amides (74–77). The Boc protecting groups were removed using TFA, and the resulting amines were coupled with the appropriate commercially available BODIPY succinimidyl ester (SE), generating a small library of 14 fluorescent conjugates (78–91). These fluorescent conjugates were initially tested using the aforementioned NanoBRET binding assay at fixed concentrations of 10 μM in the presence or absence of 10 μM 1 (see Figure S1 in the Supporting Information).
The saturation and competition binding assays were performed according to the methodology of Stoddart.[18] Briefly, the assays were performed on stably transfected NLucP2Y2-1321N1 cells that had been seeded 24 h prior to the experiment in white Thermo Scientific Matrix 96-well microplates. The medium in each well was removed and replaced with HBSS containing apyrase (1 U/mL) and the required concentration of the fluorescent ligand with or without the competing ligand. Upon the addition of the fluorescent ligand, the cells were incubated for 1 h at 37 °C without CO2. The NLuc substrate, furimazine (Promega), was then added to a final concentration of 10 μM, and the plate was incubated for a further 5 min at 37 °C without CO2. The luminescence and resulting BRET were measured using a PHERAstar FS plate reader (BMG Labtech) at room temperature. For the assays involving 97, sequential measurements of the filtered light emissions were made at 460 nm (80 nm bandpass) and >610 nm (long-pass), and the raw BRET ratios were calculated by dividing the >610 nm emissions by the 460 nm emissions. For the assays involving 98, the measurements were made at 475 nm (30 nm bandpass) and 535 nm (30 nm bandpass), and the raw BRET ratios were calculated by dividing the 535 nm emissions by the 475 nm emissions.
The total and nonspecific saturation binding curves were fitted simultaneously using eq 2: [drawing 7] 2 where Bmax is the maximum specific BRET signal, [b] is the nanomolar concentration of the fluorescent ligand, Kd is the equilibrium dissociation constant in nanomolar, M is the slope of the nonspecific-binding component, and C is the intercept with the Y-axis. The pKd is −logKd.

hP2Y2R [1] = molecular target: T2, hP2Y2R (Homo sapiens, UniProt P41231); assay: Calcium-mobilization assay in P2Y2-1321N1 cells (antagonism of UTPγS); type: cell-based
T2 construct: The 1321N1 cells expressing wild-type P2Y2R (P2Y2R-1321N1) were gifted by Dr. Elizabeth Rosethorne; expressed in transfected cells; host or cells: 1321N1 astrocytoma cells (P2Y2R-1321N1), gifted

hP2Y2R [2] = molecular target: T2, hP2Y2R; assay: Confocal microscopy of fluorescent ligands on 1321N1 astrocytoma cells expressing hP2Y2R; type: cell-based; conditions: for membrane-specific fluorescence after pretreatment with 1: 100 nM fluorescent ligand plus 10 μM 1, 30 min at 37 °C; for confocal imaging: fluorescence localisation: 100 nM fluorescent ligand, 1321N1 astrocytoma cells expressing hP2Y2R
Experimental: The P2Y2R-1321N1 cells were grown to approximately 80% confluency on eight-well Labtek chambered cover glasses (Nunc Nalgene) in normal growth medium. The growth medium was removed and replaced with HBSS containing apyrase (1 U/mL) and either 1 (10 μM) or the vehicle, and the cells incubated for 30 min at 37 °C without CO2. The cells were then incubated with 97 or 98 at the required concentration for 10 min at room temperature prior to the collection of the single-equatorial confocal images. The images were obtained on a Zeiss LSM710 confocal microscope using a 40× c-Apochromat 1.2NA water-immersion objective. For 97, the images were collected using a 633 nm excitation wavelength and a 488/561/633 dichroic, and the emissions were collected through a 650LP filter. For 98, a 488 nm excitation wavelength was used with the same dichroic, and the emissions were collected using an LP575 filter. In each case, a pinhole diameter of 1 airy unit was used, and the laser power, gain, and offset were kept the same for all of the samples within each experiment. For both 97 and 98, the images presented are as representative of an individual experiment with matched conditions. Linear adjustments to the image brightness and contrast have been applied equally across all of the comparative images using Zen software in order to prepare the images for presentation.

[3] = 10 μM fluorescent ligand, rightward shift of agonist dose–response curve, hP2Y2R-1321N1 cells, read-out: pKb (converted)

T1 sequence (P41231 2-377 limits assumed): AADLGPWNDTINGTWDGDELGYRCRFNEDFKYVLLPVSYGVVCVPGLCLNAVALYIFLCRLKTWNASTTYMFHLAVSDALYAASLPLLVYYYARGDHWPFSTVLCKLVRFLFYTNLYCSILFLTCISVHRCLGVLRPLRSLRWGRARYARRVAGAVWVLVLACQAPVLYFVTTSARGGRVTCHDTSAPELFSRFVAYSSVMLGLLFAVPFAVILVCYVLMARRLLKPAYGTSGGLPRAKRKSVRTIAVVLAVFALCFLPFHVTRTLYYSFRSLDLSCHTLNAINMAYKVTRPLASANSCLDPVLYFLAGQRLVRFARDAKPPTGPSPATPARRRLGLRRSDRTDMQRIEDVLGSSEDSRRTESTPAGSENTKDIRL
T2 sequence (P41231 whole entry): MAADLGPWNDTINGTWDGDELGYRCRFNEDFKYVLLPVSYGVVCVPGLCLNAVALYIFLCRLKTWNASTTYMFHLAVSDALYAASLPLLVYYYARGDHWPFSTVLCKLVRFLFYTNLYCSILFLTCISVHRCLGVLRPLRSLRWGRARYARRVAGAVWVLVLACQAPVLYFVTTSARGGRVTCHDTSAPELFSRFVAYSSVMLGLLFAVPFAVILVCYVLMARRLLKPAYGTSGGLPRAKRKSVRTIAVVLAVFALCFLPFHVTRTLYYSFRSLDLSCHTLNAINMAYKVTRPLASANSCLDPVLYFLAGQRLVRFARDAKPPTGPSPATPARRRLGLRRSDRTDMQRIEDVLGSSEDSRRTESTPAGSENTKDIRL

Kd (NLuc-P2Y2R; Table 5, read-out: pKd (converted)): 5130 nM
specific NanoBRET signal (NLuc-P2Y2R): largest specific NanoBRET signals
Compound: Cn1cc(C2c3ccc(Cl)cc3C=Cc3sc(NCCC(=O)NCCOCCOCCNC(=O)CCCCCNC(=O)COc4ccc(/C=C/C5=[N+]6C(=Cc7ccc(-c8cccs8)n7[B-]6(F)F)C=C5)cc4)nc32)c(=S)[nH]c1=O (centres unmarked) [Example 80, (E)-N-(2-(2-(2-(3-((7-Chloro-4-(1-methyl-2-oxo-4-thioxo-1,2,3,4-tetrahydropyrimidin-5-yl)-4H-benzo[5,6]cyclohepta[1,2-d]thiazol-2-yl)amino)propanamido)ethoxy)ethoxy)ethyl)-6-(2-(4-(2-(5,5-difluoro-7-(thiophen-2-yl)-5H-4λ^4,5λ^4-dipyrrolo[1,2-c:2′,1′-f][1,3,2]diazaborinin-3-yl)vinyl)phenoxy)acetamido)hexanamide]

specific NanoBRET signal (NLuc-P2Y2R): largest specific NanoBRET signals
Compound: Cc1cc(C)n2c1C=C1C=CC(CCC(=O)NCCNC(=O)CCNc3nc4c(s3)C=Cc3cc(Cl)ccc3C4c3cn(C)c(=O)[nH]c3=S)=[N+]1[B-]2(F)F (centres unmarked) [Example 85, 3-((7-Chloro-4-(1-methyl-2-oxo-4-thioxo-1,2,3,4-tetrahydropyrimidin-5-yl)-4H-benzo[5,6]cyclohepta[1,2-d]thiazol-2-yl)amino)-N-(2-(3-(5,5-difluoro-7,9-dimethyl-5H-4λ^4,5λ^4-dipyrrolo[1,2-c:2′,1′-f][1,3,2]diazaborinin-3-yl)propanamido)ethyl)propanamide]

Kb (hP2Y2R [1]; Table 7, Gaddum equation, shift of agonist dose–response curve by a single antagonist concentration, mean ± SEM, read-out: pKb Ca2+ mobilization (converted)): 501 nM
specific NanoBRET signal (NLuc-P2Y2R): largest specific NanoBRET signals
Compound: Cc1cc(C)n2c1C=C1C=CC(CCC(=O)NCCCCCC(=O)NCCNC(=O)CCNc3nc4c(s3)C=Cc3cc(Cl)ccc3C4c3cn(C)c(=O)[nH]c3=S)=[N+]1[B-]2(F)F (centres unmarked) [Example 86, N-(2-(3-((7-Chloro-4-(1-methyl-2-oxo-4-thioxo-1,2,3,4-tetrahydropyrimidin-5-yl)-4H-benzo[5,6]cyclohepta[1,2-d]thiazol-2-yl)amino)propanamido)ethyl)-6-(3-(5,5-difluoro-7,9-dimethyl-5H-4λ^4,5λ^4-dipyrrolo[1,2-c:2′,1′-f][1,3,2]diazaborinin-3-yl)propanamido)hexanamide]

specific NanoBRET signal (NLuc-P2Y2R): largest specific NanoBRET signals
Compound: Cc1cc(C)n2c1C=C1C=CC(CCC(=O)NCCCCCC(=O)NCCOCCOCCNC(=O)CCNc3nc4c(s3)C=Cc3cc(Cl)ccc3C4c3cn(C)c(=O)[nH]c3=S)=[N+]1[B-]2(F)F (centres unmarked) [Example 87, N-(2-(2-(2-(3-((7-Chloro-4-(1-methyl-2-oxo-4-thioxo-1,2,3,4-tetrahydropyrimidin-5-yl)-4H-benzo[5,6]cyclohepta[1,2-d]thiazol-2-yl)amino)propanamido)ethoxy)ethoxy)ethyl)-6-(3-(5,5-difluoro-7,9-dimethyl-5H-4λ^4,5λ^4-dipyrrolo[1,2-c:2′,1′-f][1,3,2]diazaborinin-3-yl)propanamido)hexanamide]

Kb (hP2Y2R [1]; [3]): 2040 nM
membrane-specific fluorescence after pretreatment with 1 (hP2Y2R [2]): substantially reduced
Compound: O=C(CCCCCNC(=O)COc1ccc(/C=C/C2=[N+]3C(=Cc4ccc(-c5cccs5)n4[B-]3(F)F)C=C2)cc1)NCCNC(=O)CCNc1nc2c(s1)C=Cc1cc(Cl)ccc1C2c1cn(Cc2nc(C(=O)Nc3nnn[nH]3)cs2)c(=O)[nH]c1=S (centres unmarked) [Example 97, (E)-2-((5-(7-Chloro-2-((3-((2-(6-(2-(4-(2-(5,5-difluoro-7-(thiophen-2-yl)-5H-4λ^4,5λ^4-dipyrrolo[1,2-c:2′,1′-f][1,3,2]diazaborinin-3-yl)vinyl)phenoxy)acetamido)hexanamido)ethyl)amino)-3-oxopropyl)amino)-4H-benzo[5,6]cyclohepta[1,2-d]thiazol-4-yl)-2-oxo-4-thioxo-3,4-dihydropyrimidin-1(2H)-yl)methyl)-N-(1H-tetrazol-5-yl)thiazole-4-carboxamide]
confocal imaging: fluorescence localisation (hP2Y2R [2]): localized membrane fluorescence and very little intracellular fluorescence

Kb (hP2Y2R [1]; [3]): 1350 nM
Kd (NLuc-P2Y2R; Table 6, read-out: NanoBRET pKd (converted)): 479 nM
membrane-specific fluorescence after pretreatment with 1 (hP2Y2R [2]): substantially reduced
Compound: CC1=CC(C)=[N+]2C1=Cc1ccc(CCC(=O)NCCCCCC(=O)NCCNC(=O)CCNc3nc4c(s3)C=Cc3cc(Cl)ccc3C4c3cn(Cc4nc(C(=O)Nc5nnn[nH]5)cs4)c(=O)[nH]c3=S)n1[B-]2(F)F (centres unmarked) [Example 98, (E)-2-((5-(7-Chloro-2-((3-((2-(6-(3-(5,5-difluoro-7,9-dimethyl-5H-5λ^4,6λ^4-dipyrrolo[1,2-c:2′,1′-f][1,3,2]diazaborinin-3-yl)propanamido)hexanamido)ethyl)amino)-3-oxopropyl)amino)-4H-benzo[5,6]cyclohepta[1,2-d]thiazol-4-yl)-2-oxo-4-thioxo-3,4-dihydropyrimidin-1(2H)-yl)methyl)-N-(1H-tetrazol-5-yl)thiazole-4-carboxamide]
confocal imaging: fluorescence localisation (hP2Y2R [2]): localized membrane fluorescence and very little intracellular fluorescence

More lines, now with the values behind:

Compound: Nc1ncnc2c1ncn2[C@@H]1O[C@H](COP(=O)(O)OP(=O)(O)OP(=O)(O)O)[C@@H](O)[C@H]1O [ATP, adenosine-5′-triphosphate]
EC50 (hP2Y2): 230 nM

Compound: O=c1ccn([C@@H]2O[C@H](COP(=O)(O)OP(=O)(O)OP(=O)(O)O)[C@@H](O)[C@H]2O)c(=O)[nH]1 [UTP, uridine-5′-triphosphate]
EC50 (hP2Y2): 140 nM

Compound: (E)-N1-(2-(6-(2-(4-(2-(5,5-Difluoro-7-(thiophen-2-yl)-5H-4λ^4,5λ^4-dipyrrolo[1,2-c:2′,1′-f][1,3,2]diazaborinin-3-yl)vinyl)phenoxy)acetamido)hexanamido)ethyl)-5-((5-(2,8-dimethyl-5H-dibenzo[a,d][7]annulen-5-yl)-2-oxo-4-thioxo-3,4-dihydropyrimidin-1(2H)-yl)methyl)-N3-(1H-tetrazol-5-yl)isophthalamide [Example 67]
NanoBRET pKd (NLuc-P2Y2R): 5.78 ± 0.18 (3)

Compound: (E)-N1-(18-(4-(2-(5,5-Difluoro-7-(thiophen-2-yl)-5H-4λ^4,5λ^4-dipyrrolo[1,2-c:2′,1′-f][1,3,2]diazaborinin-3-yl)vinyl)phenoxy)-10,17-dioxo-3,6-dioxa-9,16-diazaoctadecyl)-5-((5-(2,8-dimethyl-5H-dibenzo[a,d][7]annulen-5-yl)-2-oxo-4-thioxo-3,4-dihydropyrimidin-1(2H)-yl)methyl)-N3-(1H-tetrazol-5-yl)isophthalamide [Example 69]
NanoBRET pKd (NLuc-P2Y2R): 6.07 ± 0.15 (3)
